Consider three molecules from patent US12435023B2, “Crystal form of Treprostinil sodium salt and preparation method therefor” (Shanghai Forefront Pharmaceutical Co., Ltd, priority 2019, dated 2025).

The solubility is the concentration that dissolves in the medium under given conditions. Lower therefore signals a poorly soluble substance.

A short description of data set [1]: Water solubility at 25±2° C., dissolution observed within 30 minutes. The conditions noted are these: for solubility at 30 min: 25 °C, thermodynamic from solid; for Dissolution observed in water: 25±2° C., within 30 minutes, free acid 20 mg in 200 mL, salt forms about 100 mg in 1 mL. On the procedure:
20 mg of Treprostinil free acid was weighed and added into a volumetric flask, 200 mL of water was added, and placed in a water bath pot (temperature was controlled at 25±2° C.), shook strongly for 30 seconds every 5 minutes, and the dissolution within 30 minutes was observed.

For data set [2] the following is noted: 60% relative humidity, according to WO2016055819; cited from earlier work.
Data set [3] in a line: Accelerated stability at 40±2° C. and 75±5% relative humidity for 6 months. As to conditions: 75±5% RH. The procedure: The purity of samples after stability test was determined by HPLC, the water content of samples after stability test was determined by Karl Fischer titration, and the crystal form of samples after stability test was determined by XRPD.
Data set [4] can be described thus: Hygroscopicity by dynamic vapor sorption (DVS). The data set is classed as physicochemical. The conditions noted are these: for Water content: DVS. An excerpt: Hygroscopicity is one of the key physicochemical properties of drugs and has a significant impact on drug stability, powderological properties and subsequent processing procedure.
Data set [5] in a line: Hygroscopicity on storage at 25 degrees and 80% relative humidity for 24 hours. The data set is classed as physicochemical. The conditions noted are these: 25 degrees.

Molecules are shown by their SMILES. Structures can show the parent of a compound that is named as a salt.

On to `CCCCC[C@H](O)CC[C@@H]1[C@H]2Cc3cccc(OCC(=O)O)c3C[C@H]2C[C@H]1O` [Treprostinil free acid, Treprostinil], for which, in data set [1], the solubility at 30 min is less than 0.1 mg/mL and the “Dissolution observed in water” value was “insoluble”.
With `CCCCC[C@H](O)CC[C@@H]1[C@H]2Cc3cccc(OCC(=O)O)c3C[C@H]2C[C@H]1O` [Form A, Treprostinil sodium salt], the Crystal form conversion entry in data set [2] is “converted into Form C”.
With `CCCCC[C@H](O)CC[C@@H]1[C@H]2Cc3cccc(OCC(=O)[O-])c3C[C@H]2C[C@H]1O.[Na+]` [Treprostinil sodium salt], the Appearance entry in data set [3] (0 day) was “Off-white”; in data set [3] (1 month) it was “Off-White”; in data set [3] (3 months), “Off-white”; in data set [3] (6 months), “Off-white”. Moreover, the “Purity (HPLC) after stability test” value came to 99.97% in data set [3] (0 day), 99.97% in data set [3] (1 month), 99.96% in data set [3] (3 months) and 99.98% in data set [3] (6 months). The “Water (Karl Fischer) after stability test” value in data set [3] (0 day) is listed as 20.1%; in data set [3] (1 month), 20.4%; in data set [3] (3 months) it was 20.0%; in data set [3] (6 months) it was 20.2%. Also, the “Chemical stability and solid-state stability” value in data set [3] (6 months) is “excellent chemical stability and solid-state stability”. Further, the solubility at 30 min in data set [1] is more than 100 mg/mL. In data set [1], the “Dissolution observed in water” value is “completely dissolved”. Further, the Water content in data set [4] (40.0 RH % / 25° C.) was determined as 18.6 wt %; in data set [4] (45.0 RH % / 25° C.), 18.7 wt %; in data set [4] (50.0 RH % / 25° C.), 18.7 wt %; in data set [4] (55.0 RH % / 25° C.), 18.8 wt %; in data set [4] (60.0 RH % / 25° C.), 18.8 wt %; in data set [4] (65.0 RH % / 25° C.), 18.9 wt %. Moreover, the Water content in data set [4] (70.0 RH % / 25° C.) came to 18.9 wt %; in data set [4] (75.0 RH % / 25° C.) it was 19.0 wt %; in data set [4] (80.0 RH % / 25° C.) it was 19.7 wt %; in data set [4] (85.0 RH % / 25° C.), 19.9 wt %; in data set [4] (90.0 RH % / 25° C.), 20.5 wt %; in data set [4] (95.0 RH % / 25° C.) it was 22.6 wt %. Further, the “Hygroscopicity according to the definition in European Pharmacopoeia” value in data set [4] (relative humidity 40% to 80%) is “slight hygroscopicity”. The “Increasing value of the water content, i.e., hygroscopicity” value in data set [4] (relative humidity increased from 40% to 80%) came to 1.1 wt %. In addition, the “Behaviour of the solid on humid storage” value in data set [5] is “deliquesced into a viscous solution”. Also, the Hygroscopicity entry in data set [5] was “extremely hygroscopic”.
